Experimental data: patent US6436996B1, “Modulation of nitric oxide production” (Duke University, priority 1997, dated 2002)
“Also recorded” adds a separate entry of the source.

Tested on: human monocyte-derived macrophage cells
Assay: Nitrite (NO) production in gamma-IFN-primed human monocyte-derived macrophages, Griess reaction
Type: cell-based
Details: for nitrite levels compared to poly I:C treatment alone: Aβ peptide (5 μM) plus APOE (10 nM) plus poly I:C (50 μg/ml); for change in nitrite levels compared to untreated human MDMs: Aβ peptide alone, 1 to 10 μgM
Protocol: Cell Cultures: Human monocytes from normal, adult volunteers were generously provided by Dr. D. Webb, Center for Biologics Evaluation and Research, NIH, Bethesda, Md. Elutriated monocytes were cultured in Dulbecco's Modified Eagle Medium (DMEM) containing 20% fetal calf serum, 10% human […] (ABI Technologies, Columbia, Md.) and […] human M-Colony Stimulating Factor (M-CSF, Genzyme, Boston, Mass.) at 37° C. in a humidified atmosphere of 5% CO2, 95% air. After 5 to 7 days, morphological changes including spreading and branching of the cells signaled differentiation from monocytes to macrophages and are now commonly called “Monocyte-Derived Macrophages” (MDMs). MDM cells were removed from the flasks by gentle trypsinization, plated at 40,000 cells/well into 96 well microtiter plates and allowed to recover overnight. These MDM cells were then primed by exposure to 1000 U/ml recombinant human gamma interferon (gamma-IFN, Sigma Chemical Co., St. Louis, Mo.) diluted into HL-1 serum free media (Hycor Biomedical Include, Irvine, Calif.). At the end of 12 h priming with gamma-IFN, the priming media was replaced with HL-1 serum free media before experimental treatments as listed in the text. Following experimental treatments, the media was removed and assayed for nitrite levels using the Griess reaction [Colton, C. et al., Mol. Chem. Neuropathol. 28, 15-20 (1996)].
Treatment Factors and Conditions: M-CSF-differentiated and gamma-IFN-primed monocyte-derived macrophage cells were treated by incubation with varying concentrations of Aβ 1-40, its reverse sequence Aβ 40-1 and a non-toxic Aβ fragment, Aβ 1-28 (Bachem, Torrance, Calif.). Aβ peptides were diluted into sterile, double-distilled water and allowed to aggregate at room temperature for 48 h and then stored at −80° C. until use. Human apolipoprotein-E purified protein (Chemicon International, Inc., Temecula, Calif.) was reconstituted in serum free media and added to cells. The double stranded polyribonucleotide, polyinosinic:polycytidylic acid (poly I:C potassium salt, Sigma Chemical Co., St. Louis, Mo.) was also reconstituted into serum free media and used to stimulate nitric oxide (NO) production as described by J. Snell et al., Journal of Leukocyte Biology, 62, 369 (1997).
Measurement of Nitric Oxide (NO): After treatment, conditioned media was removed from cells and the level of nitrite, which is a stable end-product of NO release in biological systems, measured using the Griess reaction [Colton, C., supra]. Briefly, conditioned media were transferred to a new 96 well microtiter plate and an equal volume of Griess reagents were added to each well. After 10 minutes of incubation at room temperature, color development was assessed at 550 nm using a plate reader. Nitrite levels are presented as μM/well which contained 40,000 cells and an average (±SEM) obtained for at least 4 wells assayed per experimental condition for each of at least 4 individual donors. Treatment with the nitric oxide synthase (NOS) inhibitor, N-G-methyl-l-arginine (L-NMMA) was used to determine the level of NOS-mediated NO production. Statistical significance was determined using a one way analysis of variance (ANOVA).

APOE: Human apolipoprotein-E purified protein (Chemicon International), reconstituted in serum free media
overall increase in nitrite levels compared to untreated or APOE-alone treated MDMs (10 nM APOE together with 50 μg/ml poly I:C): 282%
increase in nitrite levels compared to poly I:C alone (10 nM APOE together with 50 μg/ml poly I:C, 5 days, p<0.009): 68%
nitrite levels compared to untreated controls (APOE alone, 1 nM to 100 nM, 5 days, gamma-IFN-primed MDMs): no significant increase
NO released compared to unprimed cells (APOE and poly I:C): ~3 fold

Aβ 1-28: non-toxic amyloid-βeta peptide fragment 1-28 (Bachem)
nitrite levels compared to poly I:C treatment alone (5 days): same result
change in nitrite levels compared to untreated human MDMs (5 days, gamma-IFN-primed MDMs): no significant change

boiled APOE: APOE denatured by boiling, control for non-denatured APOE
nitrite levels compared to poly I:C alone (boiled (denatured) APOE together with poly I:C, data not shown): unable to increase NO production

Aβ 1-40: toxic amyloid-βeta peptide 1-40 fragment of APP (Bachem), aggregated 48 h
nitrite levels compared to untreated control MDMs (Aβ 1-40 and APOE in the absence of poly I:C): no significant effect
nitrite levels compared to poly I:C treatment alone (5 days): no significant difference
change in nitrite levels compared to untreated human MDMs (5 days, gamma-IFN-primed MDMs): not significantly different; also recorded: no significant change
nitrite levels compared to poly I:C alone (Aβ peptide combined with 50 μg/ml poly I:C, 5 days): not significantly different

polyinosinic:polycytidylic acid [poly I:C]
increase in nitrite levels compared to untreated controls (gamma-IFN-primed MDMs, 50 μg/ml poly I:C alone, 5 days): 126%

CNC(=N)NCCC[C@H](N)C(=O)O [L-NMMA, N-G-methyl-l-arginine]
effect of NOS inhibitor on nitrite levels (L-NMMA added to APOE plus poly I:C stimulated MDMs, data not shown): reduced nitrite levels to those seen in the unstimulated controls; also recorded: inhibitable
